Experimental data from patent US20210069295A1, “GALECTINS CONTROL MTOR IN RESPONSE TO ENDOMEMBRANE DAMAGE AND PROVIDE A MECHANISM AND TARGET FOR THE TREATMENT OF AUTOPHAGY-RELATED DISEASES” (STC. UNM, priority 2017, published 2021).
Peptide text beside a SMILES is read from it.

Columns and labels:
[1] = test system: bone marrow-derived macrophages (BMMs); test: LysoTracker Red DND-99 staining in bone marrow-derived macrophages (BMMs); type: cell-based, murine; details: GPN 400 μM or LLOMe, 1 h
[2] = test system: APEX2-Gal8; test: APEX2-Gal8 proximity biotinylation LC/MS/MS proteomic analysis in HEK293T cells; type: cell-based; details: 100 μM GPN 1 h vs full medium
Protocol: HEK293T cells transfected with pJJiaDEST-APEX2 or pJJiaDEST-APEX2-Gal8 were incubated with 100 μM GPN (Cayman Chemicals) in full medium for 1 h (confluence of cells remained at 70-80%). Cells were next incubated in 500 μM biotin-phenol (AdipoGen) in full medium for the last 30 min of GPN incubation. A 1 min pulse with 1 mM H2O2 at room temperature was stopped with quenching buffer (10 mM sodium ascorbate, 10 mM sodium azide and 5 mM Trolox in Dulbecco's Phosphate Buffered Saline (DPBS)). All samples were washed twice with quenching buffer, and twice with DPBS.
For LC-MS/MS analysis, cell pellets were lysed in 500 μL ice-cold lysis buffer (6 M urea, 0.3 M Nacl, 1 mM EDTA, 1 mM EGTA, 10 mM sodium ascorbate, 10 mM sodium azide, 5 mM Trolox, 1% glycerol and 25 mm Tris/HCl [PH 7.5]) for 30 min by gentle pipetting. Lysates were clarified by centrifugation and protein concentrations determined as above. Streptavidin-coated magnetic beads (Pierce) were washed with lysis buffer. 3 mg of each sample was mixed with 100 μL of streptavidin bead. The suspensions were gently rotated at 4° C. for overnight to bind biotinylated proteins. The flowthrough after enrichment was removed and the beads were washed in sequence with 1 mL IP buffer (150 mM NaCl, 10 mM Tris-HCl pH8.0, 1 mM EDTA, 1 mM EGTA, 1% Triton X-100) twice; 1 mL 1M KCl; 1 mL of 50 mM Na2CO3; 1 mL 2M Urea in 20 mM 1Tris HCl pH8; 1 mL IP buffer. Biotinylated proteins were eluted, 5-10% of the sample processed for Western Blot and 90-95% of the sample processed for mass spectrometry.
Digested peptides were analyzed by LC-MS/MS on a Thermo Scientific Q Exactive Plus Orbitrap Mass spectrometer in conjunction Proxeon Easy-nLC II HPLC (Thermo Scientific) and Proxeon nanospray source. […]
Tandem mass spectra were extracted by Proteome Discoverer version 2.2. […] All MS/MS samples were analyzed using Sequest-HT (XCorr Only)(Thermo Fisher Scientific, San Jose, Calif., USA; in Proteome Discoverer 2.2.0.388). […] Precursor intensity was determined using Proteome Discoverer 2.2 using the Minor Feature detector with the default options. […]

[3] = test system: Gal8; test: Immunoprecipitation of endogenous Gal8 complexes in THP-1 cells; type: cell-based; details: 100 μM GPN 1 h
Protocol: (A) Analysis of the puncta formation of galectins in response to GPN. HeLa cells overexpressing YFP-fused with the indicated galectins were treated with 100 μM GPN or without (Ctrl) in full medium for 1 h and galectin puncta were quantified by HC. […] White masks, algorithm defined cell boundaries (primary objects); green masks, computer-identified galectins puncta (target objects). Data, means±SEM, n≥3 independent experiments (500 primary objects counted per well; ≥5 wells/sample per each experiment); *p<0.05, **p<0.01, † p≥0.05, ANOVA. (B) Immunoprecipitation analysis of the interactions between galectins and mTOR or RagA GTPase. HEK293T cells overexpressing FLAG-tagged galectins were subjected to anti-FLAG immunoprecipitation followed by immunoblotting for endogenous mTOR or RagA. (C) Immunoprecipitation analysis of interactions between Gal8 and mTOR protein complexes in response to GPN treatment. THP-1 cells not treated or treated with 100 μM GPN in full medium for 1 h were subjected to immunoprecipitation with anti-Gal8 antibody, followed by immunoblotting for endogenous RagA, p14, mTOR or Raptor. (D) Analysis of the proximity of Gal8 to mTOR and other proteins in mTOR complexes in response to GPN. Biotinylated proteins from HEK293T cell expressing APEX2-vector or APEX2-Gal8, after GPN and biotin phenol (BP) treatment were affinity-enriched by binding to streptavidin-beads, and samples were analyzed by immunoblotting analysis for endogenous RagA, p14, mTOR or Raptor. Data, means±SEM, (n=3), **p<0.01, ANOVA. (E) Immunoprecipitation analysis of the interactions between Gal8 and RagA GTPase and its mutants. Lysates of HEK293T cells overexpressing FLAG-Gal8 and HA-tagged RagA proteins (RagAWT, RagAT21L or RagAQ66L) were subjected to anti-FLAG immunoprecipitation, followed by immunoblotting for HA-tagged RagA proteins. (F) Immunoprecipitation analysis of the interactions between Gal8 and RagC GTPase and its mutants. […]

Structure (SMILES): NCC(=O)N[C@@H](Cc1ccccc1)C(=O)Nc1ccc2ccccc2c1 [GPN, glycyl-L-phenylalanine 2-naphththylamide] (HELM PEPTIDE1{G.F.[c1ccc2cc(N[*:1])ccc2c1]}$$$$V2.0)
- LysoTracker Red DND-99 staining in BMMs (lysosomal damage) [1]: reduced LysoTracker Red DND-99 staining
- decrease in spectral counts of mTOR proximal to APEX2-Gal8 [2]: > 100 fold
- increase in MS signal intensity of peptide precursor ions of LAMTOR1/p18, SLC38A9 and RagA/B [2]: > 100 fold
- increase in spectral counts of SLC38A9 and RagA/B proximal to APEX2-Gal8 [2]: > 100 fold
- association between Gal8 and LAMTOR2/p14 [3]: increased association
- association between Gal8 and RagA [3]: increased
- levels of Raptor and mTOR in complexes with Gal8 [3]: reduced levels
